Data as given in US12139487B2, “Compounds and uses thereof” (Foghorn Therapeutics Inc., priority 2022, dated 2024).

Columns and labels:
[1] = molecular target: T1, BRM (Homo sapiens, UniProt P51531); assay: ATPase catalytic activity assay (ADP-Glo), BRM; format: biochemical; settings: ATPase assay, selectivity BRG1/BRM, Table 10
T1 construct: made in house; host or cells: High Five insect cells
Procedure: The ATPase catalytic activity of BRM or BRG-1 was measured by an in vitro biochemical assay using ADP-Glo™ (Promega, V9102). The ADP-Glo™ kinase assay is performed in two steps once the reaction is complete. The first step is to deplete any unconsumed ATP in the reaction. The second step is to convert the reaction product ADP to ATP, which will be utilized by the luciferase to generate luminesce and be detected by a luminescence reader, such as Envision.
The assay reaction mixture […] contains 30 nM of BRM or BRG-1, 20 nM salmon sperm DNA (from Invitrogen, UltraPure™ Salmon Sperm DNA Solution, cat #15632011), and 400 μM of ATP in the ATPase assay buffer, which comprises of 20 mM Tris, pH 8, 20 mM MgCl2, 50 mM NaCl, 0.1% Tween-20, and 1 mM fresh DTT (Pierce™ DTT (Dithiothreitol), cat #20290). The reaction is initiated by the addition of the 2.5 μL ATPase solution to 2.5 μL ATP/DNA solution on low volume white Proxiplate-384 plus plate (PerkinElmer, cat #6008280) and incubates at room temperature for 1 hour. Then, following addition of 5 μL of ADP-Glo™ Reagent provided in the kit, the reaction incubates at room temperature for 40 minutes. Then, 10 μL of Kinase Detection Reagent provided in the kit is added to convert ADP to ATP, and the reaction incubates at room temperature for 60 minutes. Finally, luminescence measurement is collected with a plate-reading luminometer, such as Envision.

[2] = test system: BRM-dependent transcription (BRG1 mutant lung cancer cell line A549); assay: BRM-dependent transcription, MMTV luciferase reporter in BRG1 mutant A549 cells; format: cell-based; settings: Table 11; for IC50: A549-MMTV luciferase reporter, dexamethasone induced, 6 hours; for Ratio (MDA-MMTV IC50 (μM) divided by A549-MMTV IC50 (μM)): MMTV luciferase reporter cell lines, selectivity BRG1/BRM
Procedure: The potential inhibitory effects of compounds on BRG1 and BRM dependent transcription was study by testing the activity of against the BRG1 mutant lung cancer cell line A549 and a MDA cell line with BRM removed by CRISPR. Both cell lines were genetically engineered with a BRG1 or BRM-dependent mouse mammary tumor virus luciferase reporter. Luciferase transcription was induced by dexamethasone in the presence of compound at different concentrations and luminescence was measured using a plate reader 6 hours after stimulation.

T1 sequence (P51531 whole entry): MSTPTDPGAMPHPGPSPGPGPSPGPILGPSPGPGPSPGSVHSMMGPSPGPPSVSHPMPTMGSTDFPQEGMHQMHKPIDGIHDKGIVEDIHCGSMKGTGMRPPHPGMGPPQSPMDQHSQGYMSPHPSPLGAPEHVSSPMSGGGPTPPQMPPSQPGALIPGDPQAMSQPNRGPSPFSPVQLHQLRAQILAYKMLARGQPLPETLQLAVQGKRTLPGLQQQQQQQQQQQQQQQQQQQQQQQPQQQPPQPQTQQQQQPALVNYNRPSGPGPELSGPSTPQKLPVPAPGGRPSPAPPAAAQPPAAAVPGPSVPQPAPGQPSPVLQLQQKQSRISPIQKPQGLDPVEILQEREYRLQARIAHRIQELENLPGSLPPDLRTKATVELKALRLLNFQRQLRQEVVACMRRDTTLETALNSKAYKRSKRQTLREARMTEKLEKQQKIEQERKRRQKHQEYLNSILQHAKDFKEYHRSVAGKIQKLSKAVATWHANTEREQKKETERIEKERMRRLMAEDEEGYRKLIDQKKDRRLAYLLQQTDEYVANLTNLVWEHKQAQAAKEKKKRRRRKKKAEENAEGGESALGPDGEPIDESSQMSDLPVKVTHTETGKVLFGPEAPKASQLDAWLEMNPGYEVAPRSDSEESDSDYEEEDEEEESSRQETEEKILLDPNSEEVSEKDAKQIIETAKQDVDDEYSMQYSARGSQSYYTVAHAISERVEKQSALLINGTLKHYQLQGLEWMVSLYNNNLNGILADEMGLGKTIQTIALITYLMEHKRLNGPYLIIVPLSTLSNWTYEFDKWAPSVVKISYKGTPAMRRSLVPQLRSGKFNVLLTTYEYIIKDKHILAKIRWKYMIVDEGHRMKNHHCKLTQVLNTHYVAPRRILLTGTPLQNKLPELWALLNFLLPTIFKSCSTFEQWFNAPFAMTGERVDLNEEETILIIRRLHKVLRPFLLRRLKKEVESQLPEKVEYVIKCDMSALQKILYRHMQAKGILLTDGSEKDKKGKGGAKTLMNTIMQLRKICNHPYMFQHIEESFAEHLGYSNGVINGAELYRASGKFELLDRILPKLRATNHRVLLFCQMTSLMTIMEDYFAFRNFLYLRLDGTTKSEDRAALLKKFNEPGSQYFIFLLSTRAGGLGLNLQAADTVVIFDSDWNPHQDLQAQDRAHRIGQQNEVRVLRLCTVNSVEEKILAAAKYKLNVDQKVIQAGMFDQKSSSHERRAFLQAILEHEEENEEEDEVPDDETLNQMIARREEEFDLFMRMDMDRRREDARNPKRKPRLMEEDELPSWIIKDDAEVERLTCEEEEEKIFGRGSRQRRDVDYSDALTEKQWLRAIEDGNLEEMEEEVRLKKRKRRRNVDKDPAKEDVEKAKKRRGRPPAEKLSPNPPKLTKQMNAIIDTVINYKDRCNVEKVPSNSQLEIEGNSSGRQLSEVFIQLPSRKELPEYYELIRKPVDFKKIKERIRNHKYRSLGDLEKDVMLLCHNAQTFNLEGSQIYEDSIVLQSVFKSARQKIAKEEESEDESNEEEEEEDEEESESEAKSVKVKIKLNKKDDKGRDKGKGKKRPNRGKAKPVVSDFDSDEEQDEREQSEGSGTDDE

Compound | Ratio (BRG1 IC50 (μM) divided by BRM IC50 (μM)) [1] | IC50 ([2]; Homo sapiens, A549, 6 h) [nM] | Ratio (MDA-MMTV IC50 (μM) divided by A549-MMTV IC50 (μM)) [2] | IC50 [2] [nM]
C[C@@H]1CN(c2cccc(-c3ccc4cnc(CNC(=O)c5cc(F)c6c(c5)S(=O)(=O)[C@@H](F)CCO6)cc4n3)n2)C[C@H](C)O1 [Compound 14] | 9.92 | – | – | –
CCOc1nc(C(F)F)ccc1-c1ccc2cnc(CNC(=O)c3cc(Cl)c4c(c3)S(=O)(=O)[C@@H](F)CCO4)cc2n1 [Compound 331, (R)-9-chloro-N-((2-(6-(difluoromethyl)-2-ethoxypyridin-3-yl)-1,6-naphthyridin-7-yl)methyl)-4-fluoro-3,4-dihydro-2H-benzo[b][1,4]oxathiepine-7-carboxamide 5,5-dioxide] | – | 16.9 | 33.18 | –
O=C(NCc1cc2nc(-c3ccc(C(F)F)nc3OCC3CC3)ccc2cn1)c1cc(F)c2c(c1)S(=O)(=O)[C@@H](F)CCO2 [Compound 332, (4R)—N-[[2-[2-(cyclopropylmethoxy)-6-(difluoromethyl)-3-pyridyl]-1,6-naphthyridin-7-yl]methyl]-4,9-difluoro-5,5-dioxo-3,4-dihydro-2H-1,5benzoxathiepine-7-carboxamide] | – | 21 | 28.13 | –
COc1cccc(-c2ccc3cnc(CNC(=O)c4cc(F)c5c(c4)S(=O)(=O)[C@@H](F)CCO5)cc3n2)n1 [Compound 333] | – | 15.4 | 31.11 | –
O=C(NCc1cc2nc(-c3cccc(C(F)F)n3)ccc2cn1)c1cc(F)c2c(c1)S(=O)(=O)[C@@H](F)CCO2 [Compound 334] | – | 19 | 26.38 | –
Cc1cc(C(=O)NCc2cc3nc(N4CCOc5ccc(C(F)F)nc54)ccc3cn2)cc2c1OCC[C@H](F)S2(=O)=O [Compound 340] | – | 15.8 | 26.04 | –
O=C(NCc1cc2nc(-c3cccc(OC(F)F)c3)ccc2cn1)c1cc(F)c2c(c1)S(=O)(=O)[C@@H](F)CCO2 [Compound 342] | – | 17.9 | 23.62 | –
O=C(NCc1cc2nc(-c3ccnc(N4CCC4)n3)ccc2cn1)c1cc(F)c2c(c1)S(=O)(=O)[C@@H](F)CCO2 [Compound 343] | – | 11.1 | 24.93 | –
O=C(NCc1cc2nc(-c3ccnc(C4CC4)n3)ccc2cn1)c1cc(F)c2c(c1)S(=O)(=O)[C@@H](F)CCO2 [Compound 344] | – | 18.6 | 25.42 | –
O=C(NCc1cc2nc(-c3cccc(OC(F)F)n3)ccc2cn1)c1cc(Cl)c2c(c1)S(=O)(=O)[C@@H](F)CCO2 [Compound 346] | – | 19.9 | 44.98 | –
Cc1ccc(-c2ccc3cnc(CNC(=O)c4cc(Cl)c5c(c4)S(=O)(=O)[C@@H](F)CCO5)cc3n2)c(OC(F)F)n1 [Compound 347] | – | 17.2 | 25.03 | –
C[C@@H](CF)c1ccc2c(n1)N(c1ccc3cnc(CNC(=O)c4cc(F)c5c(c4)S(=O)(=O)[C@@H](F)CCO5)cc3n1)CCO2 [Compound 351] | – | 20 | 25.07 | –
O=C(NCc1cc2nc(N3CCCc4cc(OC(F)(F)F)cnc43)ccc2cn1)c1cc(F)c2c(c1)S(=O)(=O)[C@@H](F)CCO2 [Compound 352] | – | 16.3 | 23.28 | –
O=C(NCc1cc2nc(N3CCOc4cc(N5CC(F)(F)C5)cnc43)ccc2cn1)c1cc(F)c2c(c1)S(=O)(=O)[C@@H](F)CCO2 [Compound 353] | – | 15.5 | 21.63 | –
COCc1ccc(-c2ccc3cnc(CNC(=O)c4cc(F)c5c(c4)S(=O)(=O)[C@@H](F)CCO5)cc3n2)nc1C1CC1 [Compound 354] | – | 17.2 | 26.53 | –
O=C(NCc1cc2nc(-c3ccc(OC(F)F)c(C4CC4)n3)ccc2cn1)c1cc(Cl)c2c(c1)S(=O)(=O)[C@@H](F)CCO2 [Compound 355] | – | 13.1 | 23.10 | –
COc1nc([C@@](C)(F)C(F)F)ccc1-c1ccc2cnc(CNC(=O)c3cc(F)c4c(c3)S(=O)(=O)[C@@H](F)CCO4)cc2n1 [Compound 356] | – | 14.6 | 23.98 | –
COc1nc(-c2ccc3cnc(CNC(=O)c4cc(Cl)c5c(c4)S(=O)(=O)[C@@H](F)CCO5)cc3n2)ccc1C(F)F [Compound 360] | – | 19.9 | 23.20 | –
COc1nc([C@](C)(F)C(F)F)ccc1-c1ccc2cnc(CNC(=O)c3cc(F)c4c(c3)S(=O)(=O)[C@@H](F)CCO4)cc2n1 [Compound 363] | – | 16.9 | 22.45 | –

Results, then the compound that gave them:

Ratio (BRG1 IC50 (μM) divided by BRM IC50 (μM)) [1] | IC50 ([2]; Homo sapiens, A549, 6 h) [nM] | Ratio (MDA-MMTV IC50 (μM) divided by A549-MMTV IC50 (μM)) [2] | IC50 [2] [nM] | Compound
13.06 | – | – | – | C[C@@H]1CN(c2cccc(-c3ccc4cnc(CNC(=O)c5cc(F)c6c(c5)S(=O)(=O)[C@@H](F)CCO6)cc4n3)n2)C[C@H](C)O1 [Compound 325]
– | 16.3 | 30.32 | – | O=C(NCc1cc2nc(-c3cccc(C(F)(F)F)n3)ccc2cn1)c1cc(F)c2c(c1)S(=O)(=O)[C@@H](F)CCO2 [Compound 335]
– | 15.3 | 22.47 | – | O=C(NCc1cc2nc(-c3cccc(C4CC4(F)F)n3)ccc2cn1)c1cc(F)c2c(c1)S(=O)(=O)[C@@H](F)CCO2 (stereo partly drawn) [Compound 336]
– | 20.1 | 30.81 | – | O=C(NCc1cc2nc(-c3cccc(C4CC4)n3)ccc2cn1)c1cc(Cl)c2c(c1)S(=O)(=O)[C@@H](F)CCO2 [Compound 337]
– | 14.1 | 21.68 | – | COc1ccccc1-c1ccc2cnc(CNC(=O)c3cc(F)c4c(c3)S(=O)(=O)[C@@H](F)CCO4)cc2n1 [Compound 338]
– | 19.4 | 40.09 | – | Cc1cc(C(=O)NCc2cc3nc(-c4cccc(C5CC5)n4)ccc3cn2)cc2c1OCC[C@H](F)S2(=O)=O [Compound 339]
– | 122 | 28.75 | – | C[C@@H]1CN(c2cccc(-c3ccc4cnc(CNC(=O)c5cc(F)c6c(c5)S(=O)(=O)[C@@H](F)CO6)cc4n3)n2)C[C@H](C)O1 [Compound 341]
– | 15.6 | 21.59 | – | O=C(NCc1cc2nc(-c3ccnc(N4CCCC4)n3)ccc2cn1)c1cc(Cl)c2c(c1)S(=O)(=O)[C@@H](F)CCO2 [Compound 345]
– | 13.9 | 30.79 | – | COc1nc(C(F)(F)F)ccc1-c1ccc2cnc(CNC(=O)c3cc(Cl)c4c(c3)S(=O)(=O)[C@@H](F)CCO4)cc2n1 [Compound 348]
– | 13 | 34.91 | – | CN(C)c1nccc(-c2ccc3cnc(CNC(=O)c4cc(F)c5c(c4)S(=O)(=O)[C@@H](F)CCO5)cc3n2)n1 [Compound 349]
– | 17 | 25.08 | – | C[C@@H]1CN(c2cccc(-c3ccc4cnc(CNC(=O)c5cc(C6CC6)c6c(c5)S(=O)(=O)[C@@H](F)CCO6)cc4n3)n2)C[C@H](C)O1 [Compound 350]
– | – | 22.68 | 12.4 | O=C(NCc1cc2nc(-c3ccc(OC(F)F)c(C4CC4)n3)ccc2cn1)c1cc(Cl)c2c(c1)S(=O)(=O)[C@@H](F)CCO2 [Compound 357]
– | 15.3 | 27.40 | – | CCOc1cccc(-c2ccc3cnc(CNC(=O)c4cc(F)c5c(c4)S(=O)(=O)[C@@H](F)CCO5)cc3n2)n1 [Compound 358]
– | 18.8 | 29.73 | – | CCOc1cccc(-c2ccc3cnc(CNC(=O)c4cc(Cl)c5c(c4)S(=O)(=O)[C@@H](F)CCO5)cc3n2)n1 [Compound 359]
– | 17.9 | 22.13 | – | O=C(NCc1cc2nc(-c3cccc(OC(F)(F)F)n3)ccc2cn1)c1cc(F)c2c(c1)S(=O)(=O)[C@@H](F)CCO2 [Compound 361]
– | 22.2 | 31.16 | – | O=C(NCc1cc2nc(-c3cccc(OC(F)(F)Cl)n3)ccc2cn1)c1cc(Cl)c2c(c1)S(=O)(=O)[C@@H](F)CCO2 [Compound 362]
– | 1.9 | 22.21 | – | O=C(NCc1cc2nc(-c3cccc(C4CC4)n3)ccc2cn1)c1ccc2c(c1)S(=O)(=O)[C@@H](F)CCOC2 [Compound 364]
– | 21.3 | 24.82 | – | COc1nc(C(F)F)ccc1-c1ccc2cnc(CNC(=O)c3cc(Br)c4c(c3)S(=O)(=O)[C@@H](F)CCO4)cc2n1 [Compound 365]
